2 compounds from US6355690B1, “Remedy for CAG repeat expansion diseases” (Niigata University, priority 1998, dated 2002) can be followed below.

What all share (format): cell-based
Assay [1] has as its system COS7 cells transfected with pEGFP-Q82-19. Description: Aggregate body formation in COS7 cells expressing truncated DRPLA protein with expanded polyglutamine stretch (GFP fusion). Here is the method:
(§1) The COS7 cells were transfected with plasmid thus constructed. COS7 cells were seeded in Dulbecco's modified Eagle's medium (DMEM) containing 10% fetal calf serum the day before transfection at 3×10^4 per well of an 8-well chamber slide (Nunc Inc., Naperville, Ill.). The COS7 cells were transfected with 0.5 μg of plasmid DNA using the SuperFect transfection reagent (Qiagen, Hilden, Germany) according to the manufacturer's instructions.
(§2) To investigate whether the transglutaminase reaction is involved in the formation of aggregate bodies and the induction of apoptotic cell death, the inventors cultured COS7 cells in the presence of transglutaminase inhibitors (cystamine^28, monodansyl cadaverine (MDC)^29, and putrescine^30), after transfection. For tilis purpose, truncated DRPLA proteins were expressed as fusion proteins with green fluorescence protein (GFP), which allowed the highly sensitive observation of viable cells. The inserts of pEF-BOS-FQ82-19 and pEF-BOS-FQ19-19 were transferred into pEGFP containing the coding region for GFP. The resultant plasmid DNAs (pEGFP-FQ82-19 and pEGFP-FQ19-19) were transfected into COS7 cells. The plasmid DNA was constructed as below. The segment coding for 3 histidines, the polyglutamine stretch and 19 amino acids downstream of the polyglutamine stretch of DRPLA cDNA (pDRPLAE or pDRPLAN) was amplified by PCR using a primer (5′-GGGAATTCGGATGCACCAT-[…]-3′) containing an EcoRI linker sequence and a primer (5′-[…]-3′). PCR products were digested with EcoRI and BamHI, and subcloned into the pEGFP-N1 expression vector (Clontech, Palo Alto, Calif.). The nucleotide sequences of all the constructs were confirmed using automated DNA sequencers (PE Applied Biosystems, Foster City, Calif.).
The effects of other transglutaminase inhibitor (MDC) on the aggregate formation and apoptotic cell death were also investigated. The TUNEL assay was performed using an In Situ Cell Death Detection Kit (Boehringer Mannheim, Mannheim, Germany) according to the manufacturer's instructions. FITC-conjugated dUTP was used for the terminal deoxynucleotidyl transferase reaction. An assay for nuclear fragmentation was performed by staining cells with […] Hoechst 33342. Quantitation was performed by analyzing 100 cells expressing the FLAG epitope. Statistical analyses were performed using Student's t test.

Assay [2] has the same test system. The experiment in a line: Nuclear fragmentation (apoptotic cell death), Hoechst 33342 staining. Here is the method: as §1, §2
The effects of other transglutaminase inhibitor (MDC) on the aggregate formation and apoptotic cell death were also investigated. The TUNEL assay was performed using an In Situ Cell Death Detection Kit (Boehringer Mannheim, Mannheim, Germany) according to the manufacturer's instructions. […] Quantitation was performed by analyzing 100 cells expressing the FLAG epitope. […]

The subject of assay [3] is COS7 cells transfected with pEGFP-Q19-19. The experiment in a line: Expression pattern of GFP fusion protein with polyglutamine stretch of normal length. The following applies: 1 mM cystamine. Here is the method: as §1
To investigate whether the transglutaminase reaction is involved in the formation of aggregate bodies and the induction of apoptotic cell death, the inventors cultured COS7 cells in the presence of transglutaminase inhibitors (cystamine^28, monodansyl cadaverine (MDC)^29, and putrescine^30), after transfection. For tilis purpose, truncated DRPLA proteins were expressed as fusion proteins with green fluorescence protein (GFP), which allowed the highly sensitive observation of viable cells. The inserts of pEF-BOS-FQ82-19 and pEF-BOS-FQ19-19 were transferred into pEGFP containing the coding region for GFP. The resultant plasmid DNAs (pEGFP-FQ82-19 and pEGFP-FQ19-19) were transfected into COS7 cells. The plasmid DNA was constructed as below. […]

The mark [4] stands for this setting: even at 100 µM of cystamine, various concentrations.

Consider `CN(C)c1cccc2c(S(=O)(=O)NCCCCCN)cccc12` [MDC, monodansyl cadaverine], for which, in assay [1] (presence of MDC compared to absence of MDC), the “sizes of the aggregate bodies (in words)” value is reported as “smaller”. Moreover, in assay [1] (various concentrations of MDC), the “frequencies of the cells with aggregate formation (in words)” value is given as “no significant changes”. In assay [2] (various concentrations of MDC), the “suppression of nuclear fragmentation (in words)” value is given as “Strong suppression”.
Consider `NCCSSCCN` [cystamine], for which, in assay [1] (1 mM cystamine, 60 hours after transfection, 32% in absence of cystamine, P<0.01), the “frequency of cells retaining a diffuse cytoplasmic expression pattern without aggregate formation” value came out at 56%. The “cells with formation of aggregate bodies” value in assay [1] (1 mM cystamine, cultured for 60 hours, 42% without cystamine, P<0.01) turned out to be 33%. For the same compound, the “suppression of aggregate bodies (in words)” value in assay [1] (setting [4]) was “suppression effects appeared in a dose-dependent manner”. Besides, in assay [3], the “expression patterns of the fusion protein (in words)” value is recorded as “did not change”. This compound also returned a nuclear fragmentation in assay [2] (1 mM cystamine, 60 hours, 38% without cystamine, P<0.05) of 24%. In assay [2] (setting [4]), the “suppression of nuclear fragmentation (in words)” value is listed as “suppression effects appeared in a dose-dependent manner”.
